Measured values taken from patent US20240075036A1, “THERAPEUTIC COMBINATIONS INCLUDING INHIBITORS OF THE P2X4 RECEPTOR FOR TREATING AND PREVENTING PROLIFERATIVE DISORDERS” (CHEMOTHERAPEUTISCHES FORSCHUNGSINSTITUT GEORG-SPEYER-HAUS, priority 2021, published 2024).

Experiments:
[1] = test system: refractory metastatic colorectal cancer / refractory solid tumors; conditions: cited from earlier work
[2] = test system: advanced colorectal cancer; conditions: treatment of advanced colorectal cancer; cited from earlier work
[3] = test system: AOM/DSSATKN tumor organoids; conditions: P2x4 inhibitor in combination with 5-FU (20 μM) compared to each treatment alone; AOM/DSS tumor organoids
Description: Percentage of reseeding capacity compared to vehicle treated organoids is indicated. Data are mean±SD, n=4 replicates. […] Percentage of reseeding capacity compared to vehicle treated organoids is indicated.

[4] = test system: patient-derived tumor organoids (PDTO) from pancreatic ductal adenocarcinoma; conditions: P2X4 inhibitor 5-BDBD combined with 5-FU
PC3 and C4-2B4 cells = conditions: selective P2XR4 antagonists; cited from earlier work
[5] = test system: S6 ribosomal protein phosphorylation (mTOR signaling); assay: Immunoblot analysis of survival pathways / S6 phosphorylation in AOM/DSS tumor organoids; assay type: cell-based, mice; conditions: ATP (100 μM) in presence of inhibitor; AOM/DSS tumor organoids
Protocol: Data are mean±SD, n=7. *p<0.05 by two-tailed Student's t-test. c, Immunoblot analysis of Lgr5EGFP-DTR(−) tumor organoids treated with ATP (100 μM), 2MeS ADP (100 μM) and adenosine (100 μM) for 30 min. […] Data are mean±SD, n=4 replicates. […] Data are mean±SD, n=3 replicates. One representative of three experiment performed is shown. n.s. p>0,05, *p<0.05***, p<0.001, ****p<0.0001 by 1-way ANOVA with Bonferroni's multiple comparison test. 1, Immunoblot analysis of doxycycline inducible P2x4 knockdown APTAK colon tumor organoids treated with 5-FU (20 μM). Organoids were cultured in medium−/+doxycycline prior to the experiment. […] Organoids were cultured in medium−/+doxycycline prior to the experiment. […] Data are mean±SD, n=3.
In vitro Lgr5+ cells ablation experiments, organoids were treated with 20 ng/ml DT (Millipore, #322326) in the culture medium. For human LGR5+ cells ablation, we treated LGR5-iCT organoids with 500 nM BB homodimerizer. Other treatments were performed as described in each figure legends.

APTAK tumor organoids = assay: APTAK tumor organoids: S6 phosphorylation and organoid survival; assay type: cell-based, mice; conditions: P2x4 inhibitor in combination with 5-FU compared to each treatment alone
Protocol: Organoids were cultured in medium−/+doxycycline prior to the experiment. […] Organoids were cultured in medium−/+doxycycline prior to the experiment.
Colon tumor organoids were cultured as previously described (27). AOM/DSS induced colon tumors were harvested by opening the colon longitudinally and dissociated enzymatically for 30-40 min in digestion media containing 1 mg/ml collagenase I (Sigma-Aldrich), 0.5 mg/ml Dispase (Roche), 50 μg/ml DNase (Sigma-Aldrich) in RPMI medium containing 2% FCS. Supernatant was washed and filtered through a 70 μM cell strainer. Cells were then embedded in Matrigel (Corning, #356231) and cultured in Advanced Dulbecco's modified Eagle's medium/F12 (Invitrogen, #12634-028) supplemented with Glutamax (Invitrogen, #35050038), Hepes (Invitrogen, #15630056), Pen/Strep (Invitrogen, #15140122), N2 supplement (Invitrogen, #17502048), B27supplement (Invitrogen, #17504044) and n-Acetylcysteine (Sigma-Aldrich, #A91165). EGF (Invitrogen, #PMG8045), RspoI and noggin were added as niche factor.

rat P2X4 receptor = target: T1, rat P2X4 receptor (Rattus norvegicus, UniProt P51577); conditions: cited from earlier work
T1 sequence (P51577 1-388): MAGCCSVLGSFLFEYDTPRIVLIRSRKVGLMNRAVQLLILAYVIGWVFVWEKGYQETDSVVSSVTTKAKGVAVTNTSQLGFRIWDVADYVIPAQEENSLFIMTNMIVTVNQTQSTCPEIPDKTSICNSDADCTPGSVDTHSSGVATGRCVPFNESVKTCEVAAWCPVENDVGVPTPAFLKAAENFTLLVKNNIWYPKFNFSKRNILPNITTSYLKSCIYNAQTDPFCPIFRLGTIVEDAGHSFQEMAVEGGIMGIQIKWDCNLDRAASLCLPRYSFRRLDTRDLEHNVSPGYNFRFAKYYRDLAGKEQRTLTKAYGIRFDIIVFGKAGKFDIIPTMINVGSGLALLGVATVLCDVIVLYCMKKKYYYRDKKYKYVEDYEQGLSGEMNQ

SW480 cells = conditions: irinotecan and AZD2014 combination; orthotopic implantation; cited from earlier work
[6] = test system: ectopic patient-derived colon tumor; conditions: irinotecan and AZD2014 combination; cited from earlier work
[7] = 24 patients with refractory metastatic colorectal cancer, everolimus combination cohorts

## CO[C@H]1C[C@@H]2CC[C@@H](C)[C@@](O)(O2)C(=O)C(=O)N2CCCC[C@H]2C(=O)O[C@H]([C@H](C)C[C@@H]2CC[C@@H](OCCO)[C@H](OC)C2)CC(=O)[C@H](C)/C=C(\C)[C@@H](O)[C@@H](OC)C(=O)[C@H](C)C[C@H](C)/C=C/C=C/C=C/1C [everolimus]
[1]; [7]
  median time on treatment: 2.7 months
  patients remaining on treatment with stable disease for at least 3 months: 45%
[1]; everolimus in addition to 5-FU/LV and mFOLFOX6
  safety and tolerability: appears safe and tolerable
[2]
  clinical activity: limited clinical activity

## O=C1CN=C(c2cccc(Br)c2)c2oc3ccccc3c2N1 [5-BDBD, 5-(3-bromophenyl)-1,3-dihydro-2H-benzofuro[3,2-e]-1,4-diazepin-2-one]
[3]
  organoid survival: decreased organoid survival
[4]
  tumor organoid survival: sensitizes tumor organoids to 5-FU administration and leads to reduced tumor organoid survival
PC3 and C4-2B4 cells
  growth, mobility and apoptosis of PCa cells: impaired the growth and mobility of PCa cells but not apoptosis
[5]
  ATP induced phosphorylation of S6: reduced phosphorylation of S6 by ATP
APTAK tumor organoids
  organoid survival: decreased organoid survival
Rat P2X4 receptor
  antagonist action on ATP-induced currents: specific P2X4R antagonist

## CNC(=O)c1cccc(-c2ccc3c(N4CCOC[C@@H]4C)nc(N4CCOC[C@@H]4C)nc3n2)c1 [AZD2014]
SW480 cells
  liver and lung metastases: totally inhibited liver and lung metastases
[6]
  tumor growth: drastically reduced ectopic patient-derived colon tumor growth
